According to patent publication EP0365087A1, “Immunotoxins for the treatment or prophylaxis of auto-immune diseases” (priority 1988, dated 1990):
No end group written: not given here.

System: male Lewis-rats
Assay: DTH ear swelling after 65 kD-protein challenge in rats with adjuvant arthritis
Format: in vivo
Conditions: 0.01 mg/kg injections day 0-5 and day 8-12; 10 µg 65 kD-protein into ear day 22, swelling day 24; group average

TAVVALELQ-OH [peptide I, Thr-Ala-Val-Val-Ala-Leu-Glu-Leu-Gln-OH]
% swelling: 2.8 ± 3.4%
